Test results from patent US9242928B2, “Compound, kinesin spindle protein inhibitor, and application thereof” (FUJITSU LIMITED, priority 2010, dated 2016).
Values belong to the compound of their own block, whether it stands above or below them.

Molecular target: T1, human KSP motor domain (Uniprot P52732, residues 1-387) (Homo sapiens, UniProt P52732)
T1 construct: human KSP motor domain (Uniprot P52732, residues 1-387); His6; made in house; host or cells: E. coli BL21 Star (DE3)
T1 sequence (P52732 1-387): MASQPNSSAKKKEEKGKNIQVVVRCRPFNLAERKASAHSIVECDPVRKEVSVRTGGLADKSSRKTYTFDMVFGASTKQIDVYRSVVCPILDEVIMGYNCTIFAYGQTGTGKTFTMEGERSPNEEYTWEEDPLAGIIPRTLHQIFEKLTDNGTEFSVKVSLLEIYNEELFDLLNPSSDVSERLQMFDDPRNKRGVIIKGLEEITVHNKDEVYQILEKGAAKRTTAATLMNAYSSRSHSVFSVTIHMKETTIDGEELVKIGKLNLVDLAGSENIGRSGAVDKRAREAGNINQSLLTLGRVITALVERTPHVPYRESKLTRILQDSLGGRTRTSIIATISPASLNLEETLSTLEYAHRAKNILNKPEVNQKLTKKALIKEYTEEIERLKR
Test: Inhibitory activity against kinesin spindle protein (microtubule-stimulated ATPase, quinaldine red Pi detection, absorbance at 525 nm)
Type: biochemical
Settings: 30 nM kinesin spindle protein, 1 mM ATP, 37° C., 20 min
Protocol: Each of the compounds represented by Structural Formulas (1) to (4) was measured for inhibitory activity against a kinesin spindle protein by the following method referring to the methods described in Elizabeth B. Cogan et al., Analytical Biochemistry, 1999, 271, pp. 29-35 and Keith W. Rickert et al., Archives of Biochemistry and Biophysics, 2008, 469, pp. 220-231.
The human KSP motor domain (Uniprot P52732, residues 1-387) was cloned into the pRSETa vector (product of Invitrogen Co., Ltd) and expressed in E. coli BL21 Star (DE3) (product of Invitrogen Co., Ltd) with His6 tag for purification.
Each of the compounds represented by Structural Formulas (1) to (4) was prepared in 100% by mass DMSO (dimethylsulfoxide) at 100-fold concentration (100×). Then, the resulting mixture was diluted with 1.00% by mass DMSO to each of 0.001 mM, 0.003 mM, 0.01 mM, 0.03 mM, 0.1 mM, 0.3 mM, 1 mM, 3 mM, 10 mM and 30 mM.
A reaction mixture having a formulation described in the following Table 1 was prepared. Specifically, 28.5 μL of water, 1 μL ([…]) of the above-purified kinesin spindle protein, 5 μL of a 10× reaction buffer (150 mM PIPES (1,4-piperazine ethanesulfonic acid) (pH 7.0), 10 mM magnesium chloride, 10 mM EGTA (glycol ether diamine tetraacetate)), 10 μL of 5× microtubules solution (330 μg/mL microtubules, 15 mM PIPES (pH 7.0), 1 mM magnesium chloride, 10 μM Taxol) and 0.5 μL of the above-prepared 100× compound (the compound represented by Structural Formula (1), (2), (3) or (4)) were mixed together to prepare 45 μL of a reaction mixture, which was incubated at 37° C. for 10 min. Then, 5 μL of a 100×ATP solution (10 mM ATP, 10 mM PIPES (pH 7.0)) was added to the reaction mixture to initiate the reaction. Immediately after that, the reaction mixture was incubated at 37° C. for 20 min. […]
After the reaction, 150 μL of Quench C buffer (the formulation of which is given below) was added the reaction mixture to terminate the reaction, followed by incubating at room temperature for 5 min. Then, the reaction mixture was measured for absorbance at 525 nm with a microplate reader (SpectraMax, product of Molecular Devices Co., Ltd.). […]
The kinesin spindle protein decomposes ATP into ADP and Pi (phosphoric acid). […] Thus, the amount of the formed Pi can be measured by measuring the absorbance at 525 nm. With the absorbance at 525 nm of the high control (the amount of the formed Pi) being 100, comparing the absorbance of the high control with absorbance of test groups to which the above compounds have been added can determine whether the activity of the kinesin spindle protein is inhibited.
That is, the inhibitory rate of the activity of the kinesin spindle protein can be calculated from the following calculation formula. […]

- Inhibitory rate (%) (compound concentration 10 μM): 44.5%
Structure (SMILES): CCN(CC)C(=O)CN(Cc1ccccc1)c1ccc2c(c1F)C=CC2(C)C [Structural Formula (1)]

- Inhibitory rate (%) (compound concentration 88 μM): 50%
Structure (SMILES): CCN(CC)C(=O)CN(Cc1ccccc1)c1ccc2c(c1F)CCC2=O [Structural Formula (2), 2-(benzyl(4-fluoro-1-oxo-2,3-dihydro-1H-inden-5-yl)amino)-N,N-diethylacetamide]

- Inhibitory rate (%) (compound concentration 100 μM): 79.8%
Structure (SMILES): CC1C=Cc2cc(N(CC(=O)N(C)C)Cc3ccccc3)ccc21 (stereo not shown) [Structural Formula (4)]

- Inhibitory rate (%) (compound concentration 39 μM): 50%
Structure (SMILES): CCN(CC)C(=O)CN(Cc1ccccc1)c1ccc2c(c1)C=CC2C (stereo not shown) [Structural Formula (3)]
